Data on 1 compound can be found in ChEMBL document CHEMBL1128304, “The synthesis of N-hydroxy-N'-phenyloctanediamide and its inhibitory effect on proliferation of AXC rat prostate cancer cells” (1995).

The subject of one experiment is HL-60. The experiment can be described thus: Percent of HL-60 cells (from human acute promyelocytic leukemia) to develop the ability to reduce nitroblue tetrazolium after administration (1 uM). The format is functional. Also noted: scale not given: the % may be the effect or the level left.
The subject of another experiment is T/5. The experiment can be described thus: Tested for morphological alterations in T/5 cells after administration along with DMSO (0.1%). Format: functional, cell-based. The following applies: Rattus norvegicus.
Experiment [1] concerns Erythroleukemia cell line. As to the kind of experiment: Percent of murine erythroleukemia cells that became benzidine reactive after administration (2.5 uM). The format is functional, Mus musculus.

As to `O=C(CCCCCCC(=O)Nc1ccccc1)NO` [VORINOSTAT], the figures for the Activity (with HL-60; with T/5; in experiment [1]) were 21%, “No morphological alterations observed” and 70%, respectively.
